Measured values as given in US20240269158A1, “THERAPEUTIC AGENTS AND METHODS FOR TREATMENT OF BARTONELLOSIS” (THE ADMINISTRATORS OF THE TULANE EDUCATIONAL FUND, priority 2021, published 2024).
Converted amounts (≈) assume the structure as drawn. Read-outs that look alike come from different tables or passages of the source.

Columns and labels:
B. vinsonii = assay: Cell-free, liquid culture MBC assay; type: cell-based, B. vinsonii subsp. berkhoffii; details: 96 hrs, plated on blood agar
Protocol: The B. henselae strains used were San Antonio 2, 267HO04, a human clinical isolate and B. vinsonii subsp. berkhoffii. Both the bacteria were initially grown on tryptic soy agar (TSA) supplemented with 5% defibrinated sheep blood plates that were either pre-made (Remel, R01198) or homemade, in a humidified atmosphere at 37° C. with 5% CO2 for 7 days. For the preparation of liquid cultures, an individual well-grown colony from the plate was resuspended in 15 ml Falcon tubes containing 3 mL of either Schneider's insect media supplemented with 10% FBS, or Grace's insect media (Gibco, 11605-094) supplemented with 10% FBS, or BAPGM serum-free liquid media. The cultures grew for 7 more days in the atmosphere as above without shaking. The number of viable bacteria was determined by either plating serial dilutions of the culture on plates for CFU or by live/dead staining. Before every experiment, bacteria were mixed well and passed through 22-gauge needle to break large clumps of bacteria.
(§1) Briefly, the bacterial culture that was treated with therapeutic agents for 96 hrs was collected into a 1.5 ml microcentrifuge tubes and centrifuged at 7000 rpm for 10 min. The supernatant was removed, and the bacterial pellet was washed with 1×PBS twice. The bacterial pellet was then resuspended in 100 μL of 1×PBS, plated onto blood agar plates and incubated at 37° C. with 5% CO2 for about 14 days. This assay was repeated three times with all the 6 different antibiotics (azlocillin, azithromycin, ceftriaxone, doxycycline, gentamicin and ampicillin) and at different concentrations.
Therapeutic agent stocks were prepared in the following solvents: 10 mg/ml of ceftriaxone (USP), doxycycline (Fisher scientific, D9891-1G), gentamicin (Fisher scientific, 1405-41-0), ampicillin (Fisher scientific, 69-52-3) and azlocillin (Flightpath) in sterile cell culture grade water, whereas 5 mg/ml of azithromycin (Sigma, PZ0007-5MG) was dissolved in sterile cell culture grade DMSO. Antibiotics were then aliquoted and stored at either −80° C. or −20° C. until further use. On the day of assay, these stock concentrations were diluted to 1 mg/ml and 100 μg/ml in the respected bacterial culture media for MIC and cell-free, liquid culture MBC assays. For the DH82 cell-based MBC assay, antibiotics were diluted in EMEM media supplemented with 15% heat inactivated FBS.
(§2) For this assay, both B. henselae and B. vinsonii were grown in Grace's insect media and were tested against all of the 6 antibiotics (ceftriaxone, doxycycline, gentamicin, azithromycin, azlocillin, ampicillin). […] However, ceftriaxone, gentamicin, azithromycin, and azlocillin were all bactericidal and completely eliminated the growth at concentrations below 10 µg/ml. Table 2 provides comparison of MBCs for B. henselae and B. vinsonii strains in cell-free liquid culture medium determined by incubating the bacteria with antibiotics in a 96-well plate and plating on tryptic soy agar supplemented with 5% sheep blood. Additionally, MBC for B. henselae determined by DH82 cell-based assay (right column) is provided.

[1] = system: B. henselae and B. vinsonii; assay: Cell-free MBC assay, summary over both species; type: cell-based, Bartonella; details: 10 μg/ml
Protocol: as §1, §2

[2] = system: B. henselae and B. vinsonii; assay: Live/dead BacLight staining; type: cell-based, Bartonella; details: 10 μg/ml
Protocol: To determine the viability of the bacteria grown in liquid culture media, LIVE/DEAD BacLight™ Bacterial viability kit for microscopy (ThermoFisher, L7012) was used according to the manufacturer's protocol. Briefly, 7-day old liquid culture media was used for the determination of the viability. Initially, bacteria were diluted down to an optical density (OD) of 0.1 using the respective liquid culture media. 1 ml of 0.1 OD bacterial culture was then transferred into a 2 ml microcentrifuge tube and centrifuged at 7000 rpm for 10 min. After removing the supernatant, the pellet was resuspended in 1 ml of 0.85% NaCl and bacteria was pelleted again. After three washes, bacteria were resuspended in 1 ml of 0.85% NaCl and incubated with 1 μl of green-fluorescent nucleic acid dye (SYTO9) and 1 μl of red-fluorescent nucleic acid dye (PI) for 15 minutes. All the incubations were performed at room temperature and in the dark. After 15 minutes of incubation with both the dyes, bacteria were visualized under fluorescence microscopy and images were acquired using Nikon NIS elements software. Later, mean fluorescence intensity of both the SYTO9 and PI was measured using the Nikon elements software. Mean fluorescence values were acquired from a total of 10 images per experimental condition. To obtain dead cell counts, bacteria were treated with 70% isopropanol and incubated for 1 hr, while the sample was mixed for every 15 min and stained as above. Additionally, the entire staining protocol was repeated by staining the bacteria with PI first and then with SYTO9 both on dead and live bacteria and the fluorescence values were recorded accordingly. However, in the staining of therapeutic agent treated bacteria, both the dyes were pre-mixed into 1 ml of sterile-filtered distilled water, as previously described and 10 μl of the mixture was added into each well, incubated and visualized as described above.
Bacteria were stained with the live/dead BacLight™ kit to determine the viability of the bacteria before every experiment. […] Viability was also measured after 96 hours on control, untreated bacteria. […]

Molecule | MBC (B. vinsonii) [µg/mL] | MBC (B. vinsonii; read-out: MBC) [µg/mL] | growth on blood agar plates [1] | live/dead staining signal of treated bacteria [2]
gentamicin | 4.0 to 8.0 | – | – | –
CC1(C)S[C@@H]2[C@H](NC(=O)[C@H](NC(=O)N3CCNC3=O)c3ccccc3)C(=O)N2[C@H]1C(=O)O [Azlocillin, azlocillin] | – | 0.25 to 0.5 (≈ 0.542 to 1.08 µM) | no growth on blood agar plates | showed only SYTO9 signal
CC[C@H]1OC(=O)[C@H](C)[C@@H](O[C@H]2C[C@@](C)(OC)[C@@H](O)[C@H](C)O2)[C@H](C)[C@@H](O[C@@H]2O[C@H](C)C[C@H](N(C)C)[C@H]2O)[C@](C)(O)C[C@@H](C)CN(C)[C@H](C)[C@@H](O)[C@]1(C)O [Azithromycin, azithromycin] | – | 2 to 5 (≈ 2.67 to 6.68 µM) | no growth on blood agar plates | showed only SYTO9 signal
CO/N=C(\C(=O)N[C@@H]1C(=O)N2C(C(=O)O)=C(CSc3nc(=O)c(=O)[nH]n3C)CS[C@H]12)c1csc(N)n1 [Ceftriaxone, ceftriaxone] | – | 0.5 to 1 (≈ 0.902 to 1.8 µM) | no growth on blood agar plates | showed only SYTO9 signal
